{"source": "patent US11008332B2", "about": "“Pharmaceutical composition for preventing or treating aging-related diseases containing decursin derivative as active ingredient” (PRG S&TECH INC., priority 2017, dated 2021)", "key": {"Plasma stability, human": {"experiment": "Plasma stability, human", "type": "in vitro ADME"}, "CYP1A2": {"molecular_target": "T1, CYP1A2 (Homo sapiens, UniProt P05177)", "T1 sequence (P05177 1-516)": "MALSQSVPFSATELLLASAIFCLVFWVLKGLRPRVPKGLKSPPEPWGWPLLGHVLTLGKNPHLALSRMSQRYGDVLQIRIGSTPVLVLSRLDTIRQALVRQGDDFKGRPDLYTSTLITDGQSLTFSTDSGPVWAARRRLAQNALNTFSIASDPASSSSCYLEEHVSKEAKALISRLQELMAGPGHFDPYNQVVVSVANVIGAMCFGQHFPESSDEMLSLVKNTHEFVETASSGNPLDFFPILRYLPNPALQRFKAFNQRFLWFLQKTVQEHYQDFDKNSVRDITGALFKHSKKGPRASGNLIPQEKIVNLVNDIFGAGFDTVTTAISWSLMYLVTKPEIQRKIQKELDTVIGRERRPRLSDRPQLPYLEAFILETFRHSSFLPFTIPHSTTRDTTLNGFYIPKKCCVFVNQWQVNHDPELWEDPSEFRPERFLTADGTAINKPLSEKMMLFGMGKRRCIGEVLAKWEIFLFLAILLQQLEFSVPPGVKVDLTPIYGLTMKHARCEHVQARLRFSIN", "experiment": "CYP inhibition CYP1A2", "type": "in vitro ADME", "experimental": "In vitro ADME studies (plasma protein binding, CYP inhibition, microsomal stability, plasma stability and hERG inhibition) were performed by New drug development center though standard protocols."}}, "data": [{"smiles": "CC1(C)Oc2cc3oc(=O)ccc3cc2C[C@@H]1OC/C=C/c1ccccc1", "note": "[SLC-D011, (7S)-(+)-8,8-dimethyl-7-(3-phenyl-allyloxy)-7,8-dihydro-6H-pyrano[3,2-g]chromen-2-one]", "values": [{"measurement": "Plasma stability (% remaining) Human 30 min", "setting": "Plasma stability, human; 30 min", "value": ">100", "unit": "% remaining"}, {"measurement": "Plasma stability (% remaining) Human 120 min", "setting": "Plasma stability, human; 120 min", "value": ">100", "unit": "% remaining"}, {"measurement": "CYP inhibition CYP1A2", "setting": "CYP1A2", "value": 81.6}]}]}
